These results are taken from patent US20220401385A1, “Combination Therapy Based on PD-1 Signaling Inhibitors” (Kyoto University, priority 2019, published 2022).

Structures are written as SMILES. “Also recorded” adds a separate entry of the source.

The subject of one experiment is CD8+ T cells. The experiment can be described thus: Flow cytometry of draining lymph node and tumor-infiltrating CD8+ T cells of treated MC38 mice. It counts as in vivo, C57BL/6 mice. On the procedure: FIG. 1-1 a) CD8^+ T cells or CD3^+ T cells were isolated from mice, and 2×10^5 cells were stimulated with CD3/CD28 beads in 96-well U plates. After 24 hours and 48 hours, cells and culture supernatant were collected, followed by measurement of spermidine (SPD) concentration by mass spectrometry. […] Ten days after inoculation, PD-L1 antibody (2 mg/kg), PD-L1 antibody+SPD (2 mg/kg), or SPD alone was administered. Subsequently, PD-L1 antibody was administered 4 times at a regular interval of 5 days, and SPD was administered 8 times at a regular interval of 3 days. Tumor growth curve and survival curve are shown. c) Draining lymph nodes (DLNs) of mice were isolated 13 days after tumor inoculation, and stained with antibodies to CD8, CD44 and CD62L. The number of cells in draining lymph node (cells/DLN) in each treatment group is shown at the left side. After being gated, CD8^+ T cells were fractionated with CD44 and CD62L into P1 to P4 cell populations. Percentages and cell numbers of P1 to P4 in each treatment group are shown. d) Tumor was isolated 13 days after tumor inoculation and treated with collagenase. Percentages and numbers per mg tumor of tumor-infiltrating CD8^+ CD45.2^+ cells are shown. For statistical analysis, ANOVA was used. * p<0.05, ** p<0.01, *** p<0.001, **** p<0.0001.
FIG. 2-1 a) Treated mice were analyzed for draining lymph nodes and the inside of tumor. Briefly, draining lymph nodes of mice were isolated 13 days after tumor inoculation, and stained with antibodies to CD8 and Sca-1. FACS diagram and percentages of Sca-1^+ cells in CD8^+ T cells are shown. b) CD8^+ T cells in isolated draining lymph nodes were stimulated with CD3/CD28 antibody beads. After 24 hours, cell proliferation was examined by means of ^3H uptake. At the same time, IFN-γ concentration in culture supernatant was measured. c) Tumor from the same mice as described above was treated with collagenase. Then, expression rates of PD-1 and Tim3 in tumor-infiltrating CD8^+ T cells were analyzed. d) Oxygen consumption rate (OCR) and extracellular acidification rate (ECAR) of draining lymph node CD8^+ T cells were measured with a Seahorse analyzer (N=3 wells). For statistical analysis, ANOVA was used. * p<0.05, ** p<0.01, *** p<0.001, **** p<0.0001.
For analyzing draining lymph nodes, cells from axillary, brachial, and inguinal lymph nodes on the right side of tumor-inoculated mice were harvested and mixed. Averaged cell numbers per one lymph node were used as absolute cell numbers. For tumor analysis, tumor tissues were minced into 2- to 3-mm pieces with scissors and digested with collagenase type IV (Thermo Fisher Scientific) using a gentle MACS Dissociator (Miltenyi Biotec). The numbers of tumor cells per mg were used as absolute numbers.
The following antibodies recognizing the indicated antigens were used: CD44 (1M7), CD45.2 (104), CD45.1 (A20), CD8 (53-6.7), CD62L (MEL-14) and Sca-1 (D7) from BioLegend. All flow cytometry experiments were performed on FACS Canto II (BD Biosciences) and analyzed using FlowJo software (FLOWJO, LLC). Apoptosis assay was performed with PI (Sigma) and Annexin (BioLegend) following the instructions on the kits.
Background: Flow cytometry measures light scatter and fluorescence of single cells or particles in a stream.

In experiment [1] the test system is CD44 high CD8+ T cells. The experiment can be described thus: PI and Annexin apoptosis assay, CD44 high cells. It counts as cell-based, mice. Conditions: in the presence of SPD 0.2 μM. On the procedure: FIG. 4 CD8^+ T cells were isolated from the spleen of mice without tumor inoculation, and further isolated into CD44^+ (CD44 high) and CD44^− (CD44 low) cell populations. a) CD44 low cells were simulated with CD3/CD28 antibody beads and SPD (0.2 μM). After 30 minutes, 1 hour, 2 hours and 72 hours, OCR was measured with a Seahorse analyzer. b) At the same time, total ATP production and glycolytic pathway-derived or mitochondrial activity-derived ATP production were calculated at 30-minute, 1-hour and 2-hour. c) CD44 low cells (2×10^5 cells) were stimulated with CD3/CD28 antibody beads and SPD (0.2 μM). After 24 hours, cell proliferation was examined by means of 3H uptake. d) Spare respiratory capacity (SRC) was calculated from the OCR measurement after 72 hours in a), and results with and without SPD were compared. e) CD44 low cells were stimulated with CD3/CD28 antibody beads and SPD (0.2 μM). After 24 hours, frequencies between apoptotic and viable cells were calculated by PI and Annexin staining. f-j) CD44 high cells were analyzed under the same conditions and by the same methods as described in a-e) above. […] All flow cytometry experiments were performed on FACS Canto II (BD Biosciences) and analyzed using FlowJo software (FLOWJO, LLC). […]

The subject of a further experiment is CD44 low CD8+ T cells. The experiment can be described thus: Mitochondria-related proteomics in vitro, CD44 low cells. It counts as cell-based, mice. Conditions: late phase, 44 hours after SPD stimulation. On the procedure: (§1) FIG. 6 CD8^+ T cells were isolated from the spleen of mice without tumor inoculation, and further isolated into CD44^+ (CD44 high) and CD44^− (CD44 low) cell populations. CD44 low cells and CD44 high cells were simulated with CD3/CD28 antibody beads and SPD (0.2 μM). After 1 hour and 44 hours, cells were collected and proteomics analyses regarding mitochondria-related proteins were conducted. A heat map showing the categories of respective signaling pathways, associated protein names and comparison of their expression levels is given.
(§2) T cells were prepared by two methods. For in vivo analysis, 13 days after tumor inoculation and 3 days after the start of therapy, draining lymph nodes from 5 mice were pooled, followed by isolation of CD8^+ T cells. From the isolated CD8^+ T cells, three samples each consisting of 1×10^6 cells were prepared and used for analysis. For in vitro experiments, 2×10^5 CD8^+ T cells stimulated with 0.2 μM spermidine for 1 hour were used. For mass spectrometry analysis, a Tandem Mass Tag (TMT) system or a Data Independent Acquisition (DIA) system was used. In the analysis of in vivo CD8^+ T cells (FIG. 3), those proteins which increased by 1.5-fold or more or decreased by 0.6-fold or less were extracted.

Experiment [2] has as its system CD44 high CD8+ T cells. The experiment can be described thus: Mitochondria-related proteomics in vitro, CD44 high cells. It counts as cell-based, mice. Particulars: late phase, 44 hours after SPD stimulation. As for the experimental part: as §1, §2
The mark [3] stands for this setting: SPD + PD-1 inhibitory antibody, 13 days after tumor inoculation.
Setting [4] is: combination therapy, 13 days after tumor inoculation.

`NCCCCNCCCN` [SPD, spermidine]: in the experiment on CD8+ T cells (setting [3]), the “absolute number of effector T cells (P3) in draining lymph nodes” value is “increase”, the “cell number of the draining lymph nodes” value was “increase” and the “frequency of effector T cells (P3) in draining lymph nodes” value is given as “increase”. Besides, in the experiment with CD8+ T cells (combination therapy using SPD), the “expression of Sca-1 (activation marker) in draining lymph node CD8+ T cells” value is recorded as “enhanced” and the “frequency of exhausted CD8+ T cells (CD8+ PD-1+ Tim-3+), tumor-infiltrating” value is “decreased significantly”. Further, in the experiment on CD8+ T cells (setting [4]), the “frequency of tumor-infiltrating CD8+ T cells” value is “increased” and the “number of tumor-infiltrating CD8+ T cells” value was “increased”. Also, in the experiment on CD44 high CD8+ T cells [1], the apoptotic cells result is given as “decreased” and the viable cells result is given as “increased; also recorded: significantly high”. Further, the “expression levels of mitochondrial proteins and proteins of mitochondria-related metabolism” value with CD44 low CD8+ T cells is reported as “high”. Besides, in the experiment on CD44 high CD8+ T cells [2], the “expression levels of mitochondrial proteins and proteins of mitochondria-related metabolism” value is “high”.
